{"source": "patent US8513303B2", "about": "“Antimicrobial agent” (De Montfort University, priority 2007, dated 2013)", "test_system": "Bacillus subtilis subsp. spizizenii ATCC 6633 spore", "assay": "Testing for antimicrobial activity against spores (sporicidal suspension test)", "type": "cell-based", "protocol": "Spore suspensions were prepared based on the general principles of European quantitative suspension tests for evaluation of sporicidal activity (BS EN14347:2005: chemical disinfectants and antiseptics, basic sporicidal activity, test method and requirements (phase 1, step 1), London: British Standards Institute). Tryptone soya broth was seeded with spores from a previous batch and incubated at 37° C. to obtain an exponential growth phase culture. 10 mL of this culture was transferred into a Roux flask containing manganese-sulfate sporulation agar so that the inoculum came into contact with all of the surface of the agar. The Roux flasks were incubated at 37° C. for 2 days and for 21 days at 30° C., cultures were recovered, checked for sporulation and stored in water at 5° C. Sporicidal activity was then assessed using the method outlined previously (but with half the volume/weight of hydrogen peroxide, water, organism and catalyst) using 5 to 7.5% w/v hydrogen peroxide (see testing antimicrobial activity section). After neutralisation, a 1 mL sample was added to 12 to 15 mL of melted tryptone soya agar cooled to 45° C. Petri dishes were incubated for a minimum of 4 days and a maximum of 7 days at 37° C. and the log10 reduction in bacterial spore numbers calculated."}
{"smiles": "OO", "note": "[Example H2O2, hydrogen peroxide]", "values": [{"measurement": "Mean log10 reduction in CFU/ml", "setting": "5% w/v H2O2, no air, 10 min", "value": "1.02 (0.03) log10 CFU/ml"}, {"measurement": "Mean log10 reduction in CFU/ml", "setting": "5% w/v H2O2, no air, 30 min", "value": "1.26 (0.12) log10 CFU/ml"}, {"measurement": "Mean log10 reduction in CFU/ml", "setting": "5% w/v H2O2, no air, 60 min", "value": "1.90 (0.09) log10 CFU/ml"}, {"measurement": "Mean log10 reduction in CFU/ml", "setting": "5% w/v H2O2, no air, 120 min", "value": "3.45 (0.27) log10 CFU/ml"}, {"measurement": "Mean log10 reduction in CFU/ml", "setting": "5% w/v H2O2, no air, 120 min, listed as hydrogen peroxide", "value": 3.45, "unit": "log10 CFU/ml"}, {"measurement": "Mean log10 reduction in CFU/ml", "setting": "7.5% w/v H2O2, no air, 10 min", "value": "0.04 (0.11) log10 CFU/ml"}, {"measurement": "Mean log10 reduction in CFU/ml", "setting": "7.5% w/v H2O2, no air, 30 min", "value": "0.19 (0.08) log10 CFU/ml"}, {"measurement": "Mean log10 reduction in CFU/ml", "setting": "7.5% w/v H2O2, no air, 60 min", "value": "0.95 (0.01) log10 CFU/ml"}, {"measurement": "Mean log10 reduction in CFU/ml", "setting": "7.5% w/v H2O2, no air, 120 min", "value": "4.22 (0.71) log10 CFU/ml"}, {"measurement": "Mean log10 reduction in CFU/ml", "setting": "7.5% w/v H2O2, no air, 120 min, listed as hydrogen peroxide", "value": 4.22, "unit": "log10 CFU/ml"}]}
